This is an account of results in patent US20100119479A1, “THERAPEUTIC ANTIVIRAL PEPTIDES” (INTERMUNE, INC., priority 2008, published 2010).

The target in experiment [1] is T1, full-length NS3/NS4A-2 (HCV NS3 protease) (Hepatitis C virus genotype 1b, UniProt Q9WMX2).
T1 construct: Recombinant E. coli or Baculovirus full-length NS3; host or cells: E. coli or baculovirus (BV) expression
Description: NS3 Inhibition Assay (NS3-NS4 protease assay, RETS1 substrate). The format is biochemical. The conditions noted are these: NS3/NS4A-2 protease. On the procedure:
NS3 Complex Formation with NS4A-2.
Recombinant E. coli or Baculovirus full-length NS3 was diluted to 3.33 μM with assay buffer and transferred material to an eppendorf tube and placed in a water bath in a 4° C. refrigerator. The appropriate amount of NS4A-2 diluted to […] in assay buffer was added to equal the volume of NS3 above (conversion factor—3.8 mg/272 μL assay buffer). The material was transferred to an eppendorf tube and placed in water bath in a 4° C. refrigerator.
After equilibration to 4° C., equal volumes of NS3 and NS4A-2 solutions were combined in an eppendorf tube, mix gently with a manual pipettor, and incubate mixture for 15 minutes in the 4° C. water bath. Final concentrations in the mixture are 1.67 μM NS3, 4.15 mM NS4A-2 (2485-fold molar excess NS4A-2).
After 15 minutes at 4° C., the NS3/NS4A-2 eppendorf tube was removed and place it in a room temperature water bath for 10 minutes. NS3/NS4A-2 was aliquoted at appropriate volumes and store at −80° C. (E. coli NS3 run at 2 nM in assay, aliquot at 25 μL. BV NS3 run at 3 nM in assay, aliquot at 30 μL).
Step a. Sample compounds were dissolved to 10 mM in DMSO then diluted to 2.5 mM (1:4) in DMSO. Typically, compounds were added to an assay plate at 2.5 mM concentration, yielding upon dilution a starting concentration of 50 microM in the assay inhibition curve. Compounds were serial diluted in assay buffer to provide test solutions at lower concentrations.
Step b. The E. coli. NS3/NS4A-2 was diluted to 4 nM NS3 (1:417.5 of 1.67 μM stock−18 μL1.67 μM stock+7497 μL assay buffer). The BV NS3/NS4A-2 was diluted to 6 nM NS3 (1:278.3 of 1.67 μM stock−24 μL1.67 μM stock+6655 μL assay buffer).
Step c. Using the manual multichannel pipettor, and being careful not to introduce bubbles into the plate, 50 μL assay buffer were added to wells A01-H01 of a black Costar 96-well polypropylene storage plate.
Step d. Using the manual multichannel pipettor, and being careful not to introduce bubbles into the plate, 50 μL of diluted NS3/NS4A-2 from Step b were added to wells A02-H12 of the plate in Step c.
Step e. Using the manual multichannel pipettor, and being careful not to introduce bubbles into the plate, 25 μL of the wells in drug dilution plate in Step a were transferred to corresponding wells in assay plate in Step d. The tips on the multichannel pipettor were changed for each row of compounds transferred.
Step f Using the manual multichannel pipettor, and being careful not to introduce bubbles into the plate, the contentes of the wells from the assay plate in Step e were mixed by aspirating and dispensing 35 μL of the 75 μL in each well five times. The tips on multichannel pipettor were changed for each row of wells mixed.
Step g. The plate was covered with a polystyrene plate lid, and the plate from Step f containing NS3 protease and sample compounds was pre-incubated 10 minutes at room temperature.
While plate from Step g is pre-incubating, the RETS1 substrate was diluted in a 15 mL polypropylene centrifuge tube. The RETS1 substrate was diluted to 8 μM (1:80.75 of 646 μM stock—65 μL 646 μM stock+5184 μL assay buffer).
After the plate in Step g was done pre-incubating, and using the manual multichannel, 25 μL of substrate were added to all wells on the plate. The contents of the wells of the plate were quickly mixed, as in Step f, mixing 65 μL of the 100 μL in the wells.
The plate was read in kinetic mode on the Molecular Devices SpectraMax Gemini XS plate reader. Reader settings: Read time: 30 minutes, Interval: 36 seconds, Reads: 51, Excitation λ: 335 nm, Emission λ: 495 nm, cutoff: 475 nm, Automix: off, Calibrate: once, PMT: high, Reads/well: 6, Vmax pts: 21 or 28/51 depending on length of linearity of reaction
IC50s are determined using a four parameter curve fit equation, and converted to Ki's using the following Km's: […]
Full-length E. coli NS3−2.03 μM
Full-length BV NS3−1.74 μM
where Ki=IC50/(1+[S]/Km))

Experiment [2] has as its system HCV sub-genomic replicon, GS4.3 (HuH-7 hepatoma cells). Description: Quantitation by ELISA of NPTII in the HCV sub-genomic replicon, GS4.3. The format is cell-based. To be noted: Hepatitis C virus, GS4.3 replicon cells, 72 h incubation. The text has this: Quantitation by ELISA of the Selectable Marker Protein, Neomycin Phosphotransferase II (NPTII) in the HCV Sub-Genomic Replicon, GS4.3
The HCV sub-genomic replicon (1377/NS3-3′, accession No. AJ242652), stably maintained in HuH-7 hepatoma cells, was created by Lohmann et al. Science 285: 110-113 (1999). The replicon-containing cell culture, designated GS4.3, was obtained from Dr. Christoph Seeger of the Institute for Cancer Research, Fox Chase Cancer Center, Philadelphia, Pa.
GS4.3 cells were maintained at 37° C., 5% CO2, in DMEM (Gibco 11965-092) supplemented with L-glutamine 200 mM (100×) (Gibco25030-081), non-essential amino acids (NEAA)(Biowhittaker 13-114E), heat-inactivated (HI) Fetal Bovine Serum(FBS)(Hyclone SH3007.03) and 750 μg/mL geneticin (G418)(Gibco 10131-035). Cells were sub-divided 1:3 or 4 every 2-3 days.
24 h prior to the assay, GS4.3 cells were collected, counted, and plated in 96-well plates (Costar 3585) at 7500 cells/well in […] standard maintenance medium (above) and incubated in the conditions above. To initiate the assay, culture medium was removed, cells were washed once with PBS (Gibco 10010-023) and 90 μl Assay Medium (DMEM, L-glutamine, NEAA, 10% HI FBS, no G418) was added. Inhibitors were made as a 10× stock in Assay Medium, (3-fold dilutions from 10 μM to […] final concentration, final DMSO concentration 1%), […] were added to duplicate wells, plates were rocked to mix, and incubated as above for 72 h.
An NPTII Elisa kit was obtained from AGDIA, Inc. (Compound direct ELISA test system for Neomycin Phosphotransferase II, PSP 73000/4800). Manufacturer's instructions were followed, with some modifications. 10×PEB-1 lysis buffer was made up to include 500 μM PMSF (Sigma P7626, 50 mM stock in isopropanol). After 72 h incubation, cells were washed once with PBS and […] PEB-1 with PMSF was added per well. Plates were agitated vigorously for 15 minutes, room temperature, then frozen at −70° C. Plates were thawed, lysates were mixed thoroughly, and 100 μl were applied to an NPTII Elisa plate. A standard curve was made. Lysate from DMSO-treated control cells was pooled, serially diluted with PEB-1 with PMSF, and applied to duplicate wells of the ELISA plate, in a range of initial lysate amount of 150 μL-2.5 μL. In addition, 100 μL buffer alone was applied in duplicate as a blank. Plates were sealed and gently agitated at room temperature for 2 h. Following capture incubation, the plates were washed 5×300 μL with PBS-T (0.5% Tween-20, PBS-T was supplied in the ELISA kit). For detection, a 1× dilution of enzyme conjugate diluent MRS-2 (5×) was made in PBS-T, into which 1:100 dilutions of enzyme conjugates A and B were added, as per instructions. Plates were resealed, and incubated with agitation, covered, room temperature, for 2 h. The washing was then repeated and 100 μL, of room temperature TMB substrate was added. After approximately 30 minutes incubation (room temperature, agitation, covered), the reaction was stopped with 50 μL, 3M sulfuric acid. Plates were read at 450 nm on a Molecular Devices Versamax plate reader.
Inhibitor effect was expressed as a percentage of DMSO-treated control signal, and inhibition curves were calculated using a 4-parameter equation: y=A+((B−A)/(1+((C/x)̂D))), where C is half-maximal activity or EC50.

Some results are limits rather than exact numbers.

T1 sequence (Q9WMX2 1027-1657): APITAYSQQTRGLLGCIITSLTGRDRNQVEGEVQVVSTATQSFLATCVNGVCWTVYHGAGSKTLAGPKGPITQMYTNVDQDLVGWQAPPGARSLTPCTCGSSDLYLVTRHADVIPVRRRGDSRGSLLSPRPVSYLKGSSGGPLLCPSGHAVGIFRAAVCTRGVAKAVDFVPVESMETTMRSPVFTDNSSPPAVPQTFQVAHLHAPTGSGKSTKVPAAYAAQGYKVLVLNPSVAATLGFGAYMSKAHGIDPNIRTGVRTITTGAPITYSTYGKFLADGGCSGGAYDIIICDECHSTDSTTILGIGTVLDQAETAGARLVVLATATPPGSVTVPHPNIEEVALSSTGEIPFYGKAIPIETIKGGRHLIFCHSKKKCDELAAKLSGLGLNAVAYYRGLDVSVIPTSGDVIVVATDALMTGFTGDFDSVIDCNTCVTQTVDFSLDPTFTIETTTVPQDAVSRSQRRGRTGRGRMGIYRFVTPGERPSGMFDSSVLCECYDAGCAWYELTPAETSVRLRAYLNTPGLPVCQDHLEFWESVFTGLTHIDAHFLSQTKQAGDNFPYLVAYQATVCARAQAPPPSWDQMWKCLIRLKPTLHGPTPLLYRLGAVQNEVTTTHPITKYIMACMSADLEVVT
T1 sequence (Q9WMX2 1658-1711): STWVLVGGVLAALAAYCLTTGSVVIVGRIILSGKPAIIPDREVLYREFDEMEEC

In general, IC50 refers to the point on the concentration scale where inhibition reaches its midpoint. High values mean lower potency, low ones higher potency. By EC50 is commonly meant the midpoint of the concentration-response curve. A higher EC50 goes with a need for much substance. As for `CC[C@@H]1C[C@]1(NC(=O)[C@@H]1C[C@@H](OC(=O)N2Cc3cccc(F)c3C2)CN1C(=O)[C@@H](Nc1ccc(S(=O)(=O)N2CCNCC2)cc1)C(C)(C)C)C(=O)NS(=O)(=O)C1CC1` [Compound 17], the IC50 in experiment [1] was less than 100 nM. This compound also had an EC50 in experiment [2] greater than 1000 nM.
In the case of `C=C[C@@H]1C[C@]1(NC(=O)[C@@H]1C[C@@H](Oc2cc(-c3nc(C(C)C)cs3)nc3c(C)c(OC)ccc23)CN1C(=O)[C@@H](Nc1ccc(F)c(C(F)(F)F)c1)C(C)(C)C)C(=O)NS(=O)(=O)C1CC1` [Compound 306], the IC50 in experiment [1] is less than 100 nM. In experiment [2], this compound had an EC50 of less than 100 nM.
In experiment [1], `CC(C)(C)[C@H](Nc1cccc(OC(F)(F)F)c1)C(=O)N1C[C@H](OC(=O)N2Cc3cccc(Cl)c3C2)C[C@H]1C(=O)N[C@]1(C(=O)NS(=O)(=O)C2(C)CC2)C[C@H]1C1CC1` [Compound 304] had an IC50 of less than 100 nM. This compound also had an EC50 in experiment [2] of less than 100 nM.
In the case of `C=C[C@@H]1C[C@]1(NC(=O)[C@H]1Cc2cc(Oc3cccc(Cl)c3)ccc2CN1C(=O)[C@@H](Nc1ccc(F)cc1)C(C)(C)C)C(=O)NS(=O)(=O)C1(C)CC1` [Compound 26], in experiment [1], the IC50 was in the range of 100 to 1000 nM.
On to `C=C[C@@H]1C[C@]1(NC(=O)[C@@H]1Cc2cc(Oc3cccc(Cl)c3)ccc2CN1C(=O)[C@@H](Nc1ccc(F)cc1)C(C)(C)C)C(=O)NS(=O)(=O)C1CC1` [Compound 27], for which the IC50 in experiment [1] was less than 100 nM.
For the compound `CC[C@@H]1C[C@]1(NC(=O)[C@@H]1C[C@@H](OC(=O)N2Cc3cccc(F)c3C2)CN1C(=O)[C@@H](Nc1ccc(C(=O)N2CCOCC2)cc1)C(C)(C)C)C(=O)NS(=O)(=O)C1CC1` [Compound 11], the IC50 in experiment [1] was less than 100 nM. Also, the EC50 in experiment [2] is greater than 1000 nM.
With `CC[C@@H]1C[C@]1(NC(=O)[C@@H]1C[C@@H](Oc2cc(-c3nc(C(C)C)cs3)nc3c(C)c(OC)ccc23)CN1C(=O)[C@@H](Nc1cc(F)cc(C(F)(F)F)c1)C(C)(C)C)C(=O)NS(=O)(=O)C1CC1` [Compound 354], the half-inhibitory concentration (IC50) in experiment [1] was less than 100 nM. In experiment [2], this compound registered an EC50 of less than 100 nM.
In experiment [1], `CC[C@@H]1C[C@]1(NC(=O)[C@@H]1C[C@@H](OC(=O)N2Cc3cccc(Cl)c3C2)CN1C(=O)[C@@H](Nc1ccc(F)c(C(F)(F)F)c1)C(C)(C)C)C(=O)NS(=O)(=O)C1(C)CC1` [Compound 284] gave an IC50 of less than 100 nM. The same compound gave a 50% effective concentration (EC50) in experiment [2] of less than 100 nM.
Compound `CC[C@@H]1C[C@]1(NC(=O)[C@@H]1C[C@@H](OC(=O)N2Cc3cccc(Cl)c3C2)CN1C(=O)[C@@H](Nc1cc(F)cc(C(F)(F)F)c1)C(C)(C)C)C(=O)NS(=O)(=O)C1(C)CC1` [Compound 283] came in with an IC50 in experiment [1] of less than 100 nM. The EC50 in experiment [2] is less than 100 nM.
In turn, `CC[C@@H]1C[C@]1(NC(=O)[C@@H]1C[C@@H](OC(=O)N2Cc3ccc(OC)cc3C2)CN1C(=O)[C@@H](Nc1cc(F)cc(C(F)(F)F)c1)C(C)(C)C)C(=O)NS(=O)(=O)C1(C)CC1` [Compound 291] gave an IC50 in experiment [1] of less than 100 nM. Also, the EC50 in experiment [2] was less than 100 nM.
In experiment [1], `C=C[C@@H]1C[C@]1(NC(=O)[C@@H]1C[C@@H](Oc2nccc3ccccc23)CN1C(=O)[C@@H](Nc1cc(F)cc(C(F)(F)F)c1)C(C)(C)C)C(=O)NS(=O)(=O)C1(C)CC1` [Compound 287] had an IC50 of less than 100 nM. This compound also displayed an EC50 in experiment [2] of less than 100 nM.
In turn, `C=C[C@@H]1C[C@]1(NC(=O)[C@@H]1C[C@@H](Oc2nccc3ccccc23)CN1C(=O)[C@@H](Nc1cc(F)cc(C(F)(F)F)c1)C(C)(C)C)C(=O)NS(=O)(=O)C1CC1` [Compound 7] registered an IC50 in experiment [1] of less than 100 nM. This compound yielded an EC50 in experiment [2] of less than 100 nM.
`CC[C@@H]1C[C@]1(NC(=O)[C@@H]1C[C@@H](Oc2cc(-c3nc(C(C)C)cs3)nc3c(C)c(OC)ccc23)CN1C(=O)[C@@H](Nc1ccc(C(F)(F)F)cc1)C(C)(C)C)C(=O)NS(=O)(=O)C1(C)CC1` [Compound 299] had an IC50 in experiment [1] of less than 100 nM. This compound came in with a concentration for a half-maximal effect (EC50) in experiment [2] of less than 100 nM.
With `CC[C@@H]1C[C@]1(NC(=O)[C@@H]1C[C@@H](Oc2cc(-c3nc(C(C)C)cs3)nc3c(C)c(OC)ccc23)CN1C(=O)[C@@H](Nc1cc(F)cc(C(F)(F)F)c1)C(C)(C)C)C(=O)NS(=O)(=O)C1(C)CC1` [Compound 300], the EC50 in experiment [2] was less than 100 nM.
In turn, `C=C[C@@H]1C[C@]1(NC(=O)[C@@H]1Cc2cc(Oc3cccc(Cl)c3)ccc2CN1C(=O)[C@@H](Nc1ccc(F)cc1)C(C)(C)C)C(=O)NS(=O)(=O)C1(C)CC1` [Compound 25] had a half-maximal inhibitory concentration (IC50) in experiment [1] of less than 100 nM.
For `C=C[C@@H]1C[C@]1(NC(=O)[C@@H]1Cc2cc(Oc3cccc(Cl)c3)ccc2CN1C(=O)[C@@H](Nc1ccc(F)cc1)C(C)(C)C)C(=O)NS(=O)(=O)C1CC1` [Compound 28], the concentration for half-maximal inhibition (IC50) in experiment [1] was 100 to 1000 nM.
The same measure, in the same setting: the figure for `C=C[C@@H]1C[C@]1(NC(=O)[C@@H]1Cc2cc(Oc3cccc(Cl)c3)ccc2CN1C(=O)[C@@H](Nc1cccc(C(F)(F)F)c1)C(C)(C)C)C(=O)NS(=O)(=O)C1(C)CC1` [Compound 21] is less than 100 nM.
